From patent publication US20220347309A1, “PYRROLOBENZODIAZEPINE RESISTANCE” (ADC THERAPEUTICS SA, priority 2018, published 2022)
Read-outs that look alike come from different tables or passages of the source.

Experiments:
[1] = tested on: NCI-N87 ADCr cells; assay: Drug transporter inhibitor combination growth inhibition (MTS); assay type: cell-based, human; conditions: for response to ADCT-502: MK-571 (5 μM) or FTC (10 μM) for 24 hours before ADC
Protocol: (§1) Cells were seeded at 10,000 cells per well in a flat bottom 96-well plate, and NCI-N87 cell were incubated overnight to allow for cell attachment.
(§2) For ADC growth inhibition assays, cells were then incubated with serial dilutions of ADCT-301 or ADCT-502 in triplicate.
(§3) Growth inhibition was measured after 96 hours in Karpas-299 cells and 144 hours in NCI-N87 cells using the CellTiter 96 AQueous One MTS Solution (Promega) and absorbance measured on a Multiskan Ascent plate reader (ThermoFisher) at 492 nm.
(§4) Growth inhibition was calculated as a percentage of absorbance compared to an untreated control, and IC50 values were calculated using the sigmoidal, 4PL, X is log(concentration) equation in GraphPad Prism.
(§5) For drug transporter inhibitor combination cytotox, the resistant cell lines were incubated overnight with either 5 μM MK-571 (ABCC2 inhibitor), 10 μM FTC (ABCG2 inhibitor), 5 μM Reversin-121 ([…]) overnight before carrying out the ADC or PBD growth inhibition assay as previously described.

[2] = tested on: NCI-N87 PBDr cells; assay: as above; assay type: cell-based, human; conditions: for response to ADCT-502: MK-571 (5 μM) or FTC (10 μM) for 24 hours before ADC
Protocol: as §1, §2, §3, §4, §5

[3] = tested on: Karpas-299 ADCr cells; assay: as above; assay type: cell-based, human; conditions: for re-sensitisation to ADCT-301 treatment: MK-571 (5 μM) or FTC (10 μM) for 24 hours before ADC
Protocol: (§6) The in vitro cytotoxicity assay (MTS) was carried out as previously described.
as §1, §2, §3
(§7) Growth inhibition was calculated as a percentage of absorbance compared to an untreated control, and IC50 values were calculated using the sigmoidal, 4PL, X is log(concentration) equation in GraphPad Prism. […]

[4] = tested on: Karpas-299 PBDr cells; assay: as above; assay type: cell-based, human; conditions: for re-sensitisation to ADCT-301 treatment: MK-571 (5 μM) or FTC (10 μM) for 24 hours before ADC
Protocol: as §6, §1, §2, §3, §7

[5] = tested on: NCI-N87 PBDr cells (SG3199 acquired resistant); assay: MTS in vitro cytotoxicity, 144 h continuous exposure; assay type: cell-based, human; conditions: for cross-resistance (MTS growth inhibition compared to the parental cell line): NCI-N87 PBDr vs parental
Protocol: (§13) To generate a resistant population to either ADCT-502 or SG3199, human gastric cancer NCI-N87 cells (expressing HER2) were incubated with an approximate IC50 dose of the drug for 144 hours. The cells were then washed and returned to fresh medium until normal cell growth was recovered. This process was repeated until a measurable and stable loss in cytotoxic efficacy was established using the MTS assay.
(§14) To measure the in vitro cytotoxicity with the MTS assay, cells were incubated with a 10-fold dilution range of ADCT-502 or SG3199, and incubated with continuous exposure for 144 hours (at least three cell doubling times under normal cell culture conditions). After incubation the CellTiter 960 AQueous One Solution Cell Proliferation Assay (MTS) was used to measure growth inhibition, by adding 20 μl reagent to the cells and incubating for 3-4 hours, then reading the absorbance at 492 nm. Mean % growth of the ADC or PBD treated cells was calculated relative to an untreated control.
(§15) To measure the cross-resistance of the NCI-N87 ADCR cells to the SG3199 PBD warhead, and the PBDR cells to ADCT-502, the in vitro cytotoxicity assay was carried out as described above, treating the cells with the opposite drug molecule to the one with which they were generated.

[6] = tested on: NCI-N87 ADCr cells (ADCT-502 acquired resistant); assay: as above; assay type: cell-based, human; conditions: for cross-resistance (MTS growth inhibition compared to the parental cell line): NCI-N87 ADCr vs parental
Protocol: as §13, §14, §15

[7] = tested on: Karpas-299 wt cells; assay: MTS in vitro cytotoxicity, 96 h continuous exposure; assay type: cell-based; conditions: Homo sapiens, KARPAS-299, read-out: IC50 nM
Protocol: To measure the in vitro cytotoxicity with the MTS assay, cells were incubated with a 10-fold dilution range of ADCT-301 or SG3199, and incubated with continuous exposure for 96 hours (at least three cell doubling times under normal cell culture conditions). After incubation the CellTiter 960 AQueous One Solution Cell Proliferation Assay (MTS) was used to measure growth inhibition, by adding 20 μl reagent to the cells and incubating for 3-4 hours, then reading the absorbance at 492 nm. Mean % growth of the ADC or PBD treated cells was calculated relative to an untreated control.

[8] = tested on: NCI-N87 wt cells; assay: MTS in vitro cytotoxicity, 144 h continuous exposure; assay type: cell-based, human; conditions: Homo sapiens, NCI-N87, 144 h, read-out: IC50 pM
Protocol: as §13, §14, §15

[9] = tested on: Karpas ADCr cells (ADCT-301 acquired resistant Karpas-299); assay: MTS in vitro cytotoxicity, 96 h continuous exposure
Protocol: (§8) To generate a resistant population to either ADCT-301 or SG3199, human anaplastic large cell lymphoma Karpas-299 cells (expressing CD25) were incubated with an approximate IC50 dose of the drug for 96 hours. The cells were then washed and returned to fresh medium until normal cell growth was recovered. This process was repeated until a measurable and stable loss in cytotoxic efficacy was established using the MTS assay.
(§9) To measure the in vitro cytotoxicity with the MTS assay, cells were incubated with a 10-fold dilution range of ADCT-301 or SG3199, and incubated with continuous exposure for 96 hours (at least three cell doubling times under normal cell culture conditions). After incubation the […] AQueous One Solution Cell Proliferation Assay (MTS) was used to measure growth inhibition, by adding 20 μl reagent to the cells and incubating for 3-4 hours, then reading the absorbance at 492 nm. Mean % growth of the ADC or PBD treated cells was calculated relative to an untreated control.
(§10) To measure the cross-resistance of the Karpas ADCR cells to the SG3199 PBD warhead, and the PBDR cells to ADCT-301, the in vitro cytotoxicity assay was carried out as described above, treating the cells with the opposite drug molecule to the one with which they were generated.
(§11) To measure the cross-resistance of the Karpas ADCR and PBDR cells to the PBD dimer warhead SG2000, the in vitro cytotoxicity (MTS) assay was carried out as previously described in Example 2.

[10] = tested on: Karpas PBDr cells (SG3199 acquired resistant Karpas-299); assay: as above
Protocol: as §8, §9, §10, §11

[11] = biological target: T1, CD25 on Karpas-299 PBDR cells (Homo sapiens, UniProt P01589); assay: CD25 antibody binding, flow cytometry; conditions: Karpas-299 PBDR vs wt, 1 hour on ice
T1 construct: endogenous in cells; host or cells: Karpas-299 acquired-resistant sublines (ADCR: selected with ADCT-301; PBDR: selected with SG3199)
T1 sequence (P01589 22-272): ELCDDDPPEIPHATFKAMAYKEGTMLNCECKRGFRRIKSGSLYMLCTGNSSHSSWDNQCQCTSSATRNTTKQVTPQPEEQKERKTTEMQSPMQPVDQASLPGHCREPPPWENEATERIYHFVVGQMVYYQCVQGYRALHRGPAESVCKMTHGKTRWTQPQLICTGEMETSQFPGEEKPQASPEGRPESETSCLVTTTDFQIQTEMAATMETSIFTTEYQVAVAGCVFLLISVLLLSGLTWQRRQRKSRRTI
Protocol: (§12) Karpas wt and acquired resistant cells were blocked at 4° C. for 30 mins before being incubated with a serial dilution series of HuMax-TAC mAb for 1 hour on ice. The cells were then washed and incubated with a F(ab′)2-Goat anti-Human IgG Fc Secondary Antibody conjugated to Alexa Fluor 488. After incubation for 1 hour on ice in the dark the cells were washed and run on a Fortessa X20 flow cytometer, and the mean fluorescence intensity (MFI) determined using the B530/30 laser/filter. […] In NCI-N87 cell lines there was a small decrease in MFI reached by the PBDr cell line, but the ADCr cell line was unchanged compared to the parental line (data not shown). However all cells continued to express high levels of antigen.

[12] = biological target: T2, CD25 on Karpas-299 ADCR cells (Homo sapiens, UniProt P01589); assay: CD25 antibody binding, flow cytometry; conditions: Karpas-299 ADCR vs wt, 1 hour on ice
T2 construct: endogenous in cells; host or cells: Karpas-299 acquired-resistant sublines (ADCR: selected with ADCT-301; PBDR: selected with SG3199)
T2 sequence (P01589 22-272): T1 sequence (P01589 22-272)
Protocol: as §12

[13] = Homo sapiens, NCI-N87, 144 h, read-out: IC50 pM
[14] = Homo sapiens, KARPAS-299, read-out: IC50 nM

Q: For COc1ccc2c3c([nH]c2c1)[C@H](C=C(C)C)N1C(=O)[C@@H]2CCCN2C(=O)[C@@H]1C3 [FTC, Fumitremorgin C], which “response to ADCT-502” value [1] is on record?
A: restored to the level of the parental cell line

Q: And the “response to ADCT-502” value [2]?
A: restored to the level of the parental cell line

Q: And the “re-sensitisation to ADCT-301 treatment” value ([3]; Karpas-299 ADCr)?
A: dramatic re-sensitisation

Q: What about the “re-sensitisation to ADCT-301 treatment” value ([4]; Karpas-299 PBDr) of the same compound?
A: dramatic re-sensitisation

Q: With CC[C@H](C)C(=O)O[C@H]1C[C@@H](C)C=C2C=C[C@H](C)[C@H](CC[C@@H]3C[C@@H](O)CC(=O)O3)[C@H]21 [Lovastatin] as the compound, how does the “reversal of resistance by SLCO2B1 inhibitor” value ([1]; 5 μM Lovastatin with ADCT-502) read?
A: failed to reverse the resistance

Q: What about the “reversal of resistance by SLCO2B1 inhibitor” value ([2]; 5 μM Lovastatin with ADCT-502) of the same compound?
A: failed to reverse the resistance

Q: And the “reversal of resistance by SLCO2B1 inhibitor” value ([3]; Karpas-299 ADCr, 10 nM Lovastatin with ADCT-301)?
A: failed to reverse the resistance

Q: And the “reversal of resistance by SLCO2B1 inhibitor” value ([4]; Karpas-299 PBDr, 10 nM Lovastatin with ADCT-301)?
A: failed to reverse the resistance

Q: Which “response to ADCT-502” value [1] does the source give for CN(C)C(=O)CCSC(SCCC(=O)[O-])c1cccc(/C=C/c2ccc3ccc(Cl)cc3n2)c1.[Na+] (stereo not drawn) [MK-571] here?
A: restored to the level of the parental cell line

Q: What about the “response to ADCT-502” value [2] of the same compound?
A: restored to the level of the parental cell line

Q: And the “reversal of acquired resistance to ADCT-301” value ([3]; Karpas ADCr, 50 μM MK-571, 96-hour continuous exposure to ADCT-301)?
A: partially reverse the resistance

Q: And the “re-sensitisation to ADCT-301 treatment” value ([3]; Karpas-299 ADCr)?
A: dramatic re-sensitisation

Q: What about the “reversal of acquired resistance to ADCT-301” value ([4]; Karpas PBDr, 50 μM MK-571, 96-hour continuous exposure to ADCT-301) of the same compound?
A: partially reverse the resistance

Q: What about the “re-sensitisation to ADCT-301 treatment” value ([4]; Karpas-299 PBDr) of the same compound?
A: dramatic re-sensitisation

Q: C=C1C[C@H]2C=Nc3cc(OCCCOc4cc5c(cc4OC)C(=O)N4CC(=C)C[C@H]4C=N5)c(OC)cc3C(=O)N2C1 [SG2000] was tested. Which IC50 [5, 13] did it give?
A: 493 pM

Q: What about the “fold resistance compared to wildtype” value ([5]; NCI-N87 PBDr vs NCI-N87 wt IC50) of the same compound?
A: 7.7 fold

Q: And the IC50 [6, 13]?
A: 483 pM

Q: What about the “fold resistance compared to wildtype” value ([6]; NCI-N87 ADCr vs NCI-N87 wt IC50) of the same compound?
A: 7.5 fold

Q: And the IC50 [7]?
A: 0.9 nM

Q: What about the IC50 [8] of the same compound?
A: 64 pM

Q: What about the IC50 [9, 14] of the same compound?
A: 2.8 nM

Q: What about the “fold resistance compared to wildtype” value ([9]; Karpas ADCr vs Karpas wt IC50) of the same compound?
A: 3.1 fold

Q: What about the IC50 [10, 14] of the same compound?
A: 4.7 nM

Q: What about the “fold resistance compared to wildtype” value ([10]; Karpas PBDr vs Karpas wt IC50) of the same compound?
A: 5.2 fold

Q: N.N.[Cl][Pt][Cl] [cisplatin] was tested. Which “cross-resistance (MTS growth inhibition compared to the parental cell line)” value [5] did it give?
A: decrease in growth inhibition

Q: And the “cross-resistance (MTS growth inhibition compared to the parental cell line)” value [6]?
A: decrease in growth inhibition

Q: Which results are given for COc1cccc2c1C(=O)c1c(O)c3c(c(O)c1C2=O)C[C@@](O)(C(=O)CO)C[C@@H]3O[C@H]1C[C@H](N)[C@H](O)[C@H](C)O1 [doxorubicin]?
A: cross-resistance (MTS growth inhibition compared to the parental cell line) [5]: decrease in growth inhibition; cross-resistance (MTS growth inhibition compared to the parental cell line) [6]: decrease in growth inhibition; cross-resistance (MTS cytotoxic sensitivity compared to wt cells) [9]: No cross-resistance; cross-resistance (MTS cytotoxic sensitivity compared to wt cells) [10]: No cross-resistance

Q: For N[C@@H](Cc1ccc(N(CCCl)CCCl)cc1)C(=O)O [melphalan], which “cross-resistance (MTS growth inhibition compared to the parental cell line)” value [5] is on record?
A: decrease in growth inhibition

Q: What about the “cross-resistance (MTS growth inhibition compared to the parental cell line)” value [6] of the same compound?
A: decrease in growth inhibition

Q: And the “cross-resistance (MTS cytotoxic sensitivity compared to wt cells)” value ([9]; Karpas ADCr vs wt/parental)?
A: No cross-resistance

Q: And the “cross-resistance (MTS cytotoxic sensitivity compared to wt cells)” value ([10]; Karpas PBDr vs wt/parental)?
A: No cross-resistance

Q: Which results are given for “HuMax-TAC: fully human monoclonal IgG1,K antibody, VH SEQ ID NO. 1 and VL SEQ ID NO. 2; binds CD25”?
A: MFI of antibody binding compared to wildtype [11]: identical to wildtype cells; peak MFI of antibody binding compared to wildtype [12]: small decrease in peak MFI
